Test results: PubChem BioAssay (NCI)
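Tested at 5 concentrations; 48 h exposure; 96-well plates; endpoints linearly interpolated, else capped at highest concentration. TGI: total growth inhibition.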

Columns and labels:
Test in all cases: growth of human tumour cells (NCI), 48 h
SR leukemia = system: SR leukemia
M14 melanoma = system: M14 melanoma
NCI-H23 lung = system: NCI-H23 lung
OVCAR-4 ovarian = system: OVCAR-4 ovarian
MDA-N = system: MDA-N
MOLT-4 leukemia = system: MOLT-4 leukemia
SNB-19 CNS = system: SNB-19 CNS
NCI/ADR-RES ovarian = system: NCI/ADR-RES ovarian
U251 CNS = system: U251 CNS
HT29 colon = system: HT29 colon
NCI-H460 lung = system: NCI-H460 lung
SF-539 CNS = system: SF-539 CNS
SW-620 colon = system: SW-620 colon
OVCAR-8 ovarian = system: OVCAR-8 ovarian
SN12C renal = system: SN12C renal
A549 NSCLC = system: A549 NSCLC
SNB-75 CNS = system: SNB-75 CNS
DU-145 prostate = system: DU-145 prostate
KM12 colon = system: KM12 colon
T-47D breast = system: T-47D breast
MCF7 breast = system: MCF7 breast
HL-60(TB) leukemia = system: HL-60(TB) leukemia
SF-268 CNS = system: SF-268 CNS
HCT-116 colon = system: HCT-116 colon
MDA-MB-435 = system: MDA-MB-435
K-562 leukemia = system: K-562 leukemia
MDA-MB-231 breast = system: MDA-MB-231 breast
HCC-2998 colon = system: HCC-2998 colon
OVCAR-3 ovarian = system: OVCAR-3 ovarian
UACC-62 melanoma = system: UACC-62 melanoma
HOP-62 NSCLC = system: HOP-62 NSCLC
ACHN renal = system: ACHN renal
TK-10 renal = system: TK-10 renal
COLO 205 colon = system: COLO 205 colon
IGROV1 ovarian = system: IGROV1 ovarian
SK-OV-3 ovarian = system: SK-OV-3 ovarian
786-0 renal = system: 786-0 renal
OVCAR-5 ovarian = system: OVCAR-5 ovarian
MALME-3M melanoma = system: MALME-3M melanoma
NCI-H226 lung = system: NCI-H226 lung
CCRF-CEM leukemia = system: CCRF-CEM leukemia
LOX IMVI melanoma = system: LOX IMVI melanoma
EKVX NSCLC = system: EKVX NSCLC
A498 renal = system: A498 renal
SK-MEL-28 melanoma = system: SK-MEL-28 melanoma
SF-295 CNS = system: SF-295 CNS
HOP-92 NSCLC = system: HOP-92 NSCLC
HS 578T breast = system: HS 578T breast
UACC-257 melanoma = system: UACC-257 melanoma
RXF 393 renal = system: RXF 393 renal
CAKI-1 renal = system: CAKI-1 renal
NCI-H522 lung = system: NCI-H522 lung
HCT-15 colon = system: HCT-15 colon
SK-MEL-5 melanoma = system: SK-MEL-5 melanoma
UO-31 renal = system: UO-31 renal
RPMI-8226 leukemia = system: RPMI-8226 leukemia
SK-MEL-2 melanoma = system: SK-MEL-2 melanoma
PC-3 prostate = system: PC-3 prostate

CCOC(=O)c1c(SC(=O)C(C)(C)Oc2ccc(Cl)cc2)n(-c2ccccc2)c(=S)n(-c2ccccc2)c1=O
TGI (SR leukemia): 52.3 µM
TGI (M14 melanoma): > 100 µM
TGI (NCI-H23 lung): > 100 µM
TGI (OVCAR-4 ovarian): > 100 µM
TGI (MDA-N): > 100 µM
TGI (MOLT-4 leukemia): 58 µM
TGI (SNB-19 CNS): > 100 µM
TGI (NCI/ADR-RES ovarian): > 100 µM
TGI (U251 CNS): 41 µM
TGI (HT29 colon): 66.4 µM
TGI (NCI-H460 lung): 52.8 µM
TGI (SF-539 CNS): 41.7 µM
TGI (SW-620 colon): 55.2 µM
TGI (OVCAR-8 ovarian): 42.1 µM
TGI (SN12C renal): 67.8 µM
TGI (A549 NSCLC): 65.3 µM
TGI (SNB-75 CNS): > 100 µM
TGI (DU-145 prostate): > 100 µM
TGI (KM12 colon): 50 µM
TGI (T-47D breast): > 100 µM
TGI (MCF7 breast): 57.2 µM
TGI (HL-60(TB) leukemia): > 100 µM
TGI (SF-268 CNS): 43.9 µM
TGI (HCT-116 colon): 49 µM
TGI (MDA-MB-435): > 100 µM
TGI (K-562 leukemia): > 100 µM
TGI (MDA-MB-231 breast): 47.9 µM
TGI (HCC-2998 colon): > 100 µM
TGI (OVCAR-3 ovarian): > 100 µM
TGI (UACC-62 melanoma): > 100 µM
TGI (HOP-62 NSCLC): 60.1 µM
TGI (ACHN renal): 44.4 µM
TGI (TK-10 renal): > 100 µM
TGI (COLO 205 colon): 39.3 µM
TGI (IGROV1 ovarian): 36 µM
TGI (SK-OV-3 ovarian): > 100 µM
TGI (786-0 renal): > 100 µM
TGI (OVCAR-5 ovarian): > 100 µM
TGI (MALME-3M melanoma): 72.7 µM
TGI (NCI-H226 lung): > 100 µM
TGI (CCRF-CEM leukemia): 75.5 µM
TGI (LOX IMVI melanoma): > 100 µM
TGI (EKVX NSCLC): > 100 µM
TGI (A498 renal): 98.9 µM
TGI (SK-MEL-28 melanoma): > 100 µM
TGI (SF-295 CNS): > 100 µM
TGI (HOP-92 NSCLC): > 100 µM
TGI (HS 578T breast): > 100 µM
TGI (UACC-257 melanoma): > 100 µM
TGI (RXF 393 renal): 73.4 µM
TGI (CAKI-1 renal): > 100 µM
TGI (NCI-H522 lung): 84.3 µM
TGI (HCT-15 colon): > 100 µM

N=C1N(/N=C/c2ccccn2)C(=Nc2ccccc2)C(=S)N1c1ccccc1
TGI (SK-MEL-5 melanoma): 16.5 µM
TGI (SR leukemia): > 100 µM
TGI (NCI-H23 lung): 19.5 µM
TGI (OVCAR-4 ovarian): 23.9 µM
TGI (MDA-N): 11.8 µM
TGI (MOLT-4 leukemia): > 100 µM
TGI (SNB-19 CNS): 31.2 µM
TGI (UO-31 renal): 16 µM
TGI (NCI/ADR-RES ovarian): 10.6 µM
TGI (RPMI-8226 leukemia): > 100 µM
TGI (U251 CNS): 20.7 µM
TGI (HT29 colon): 13.6 µM
TGI (NCI-H460 lung): 15.9 µM
TGI (SF-539 CNS): 15.8 µM
TGI (SW-620 colon): 16.3 µM
TGI (OVCAR-8 ovarian): 13.8 µM
TGI (SN12C renal): 17.9 µM
TGI (A549 NSCLC): 23.8 µM
TGI (SNB-75 CNS): 42.2 µM
TGI (DU-145 prostate): 13.4 µM
TGI (KM12 colon): 17.3 µM
TGI (T-47D breast): 21.1 µM
TGI (SK-MEL-2 melanoma): 12.8 µM
TGI (SF-268 CNS): 18.3 µM
TGI (HCT-116 colon): 8.34 µM
TGI (MDA-MB-435): 17.4 µM
TGI (K-562 leukemia): > 100 µM
TGI (MDA-MB-231 breast): 19.8 µM
TGI (HCC-2998 colon): 22 µM
TGI (UACC-62 melanoma): 4.61 µM
TGI (HOP-62 NSCLC): 22 µM
TGI (ACHN renal): 7.96 µM
TGI (TK-10 renal): 22.9 µM
TGI (COLO 205 colon): 5.36 µM
TGI (IGROV1 ovarian): 18.8 µM
TGI (SK-OV-3 ovarian): 42.8 µM
TGI (786-0 renal): 13.7 µM
TGI (OVCAR-5 ovarian): 17.5 µM
TGI (MALME-3M melanoma): 22.8 µM
TGI (NCI-H226 lung): 32.9 µM
TGI (CCRF-CEM leukemia): > 100 µM
TGI (LOX IMVI melanoma): 11.3 µM
TGI (EKVX NSCLC): 15.9 µM
TGI (PC-3 prostate): 15.8 µM
TGI (A498 renal): 39.5 µM
TGI (SK-MEL-28 melanoma): 23 µM
TGI (SF-295 CNS): 19 µM
TGI (HOP-92 NSCLC): 22.9 µM
TGI (HS 578T breast): 29.4 µM
TGI (UACC-257 melanoma): 21.3 µM
TGI (RXF 393 renal): 16.4 µM
TGI (CAKI-1 renal): 20 µM
TGI (NCI-H522 lung): 3.72 µM
TGI (HCT-15 colon): 12.2 µM
